Like-named read-outs stand apart in the source and are kept apart here.
Assays:
hCA I [1] = biological target: T1, hCA I (Homo sapiens, UniProt P00915); assay: stopped-flow CO2 hydrase assay, hCA I; format: biochemical
T1 construct: made in house

hCA II [2] = biological target: T2, hCA II (Homo sapiens, UniProt P00918); assay: stopped-flow CO2 hydrase assay, hCA II; format: biochemical
T2 construct: made in house

hCA IV [3] = biological target: T3, hCA IV (Homo sapiens, UniProt P22748); assay: stopped-flow CO2 hydrase assay, hCA IV; format: biochemical
T3 construct: made in house
T3 sequence (P22748 19-312): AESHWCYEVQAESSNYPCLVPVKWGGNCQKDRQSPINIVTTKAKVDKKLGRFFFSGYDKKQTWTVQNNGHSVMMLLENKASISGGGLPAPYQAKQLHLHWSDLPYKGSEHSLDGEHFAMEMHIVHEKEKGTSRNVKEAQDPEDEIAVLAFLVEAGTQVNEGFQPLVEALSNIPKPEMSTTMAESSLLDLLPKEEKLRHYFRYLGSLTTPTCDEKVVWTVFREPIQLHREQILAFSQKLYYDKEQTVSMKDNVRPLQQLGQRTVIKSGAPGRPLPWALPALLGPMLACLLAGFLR

hCA VA [4] = biological target: T4, hCA VA (Homo sapiens, UniProt P35218); assay: stopped-flow CO2 hydrase assay, hCA VA; format: biochemical
T4 construct: made in house
T4 sequence (P35218 39-305): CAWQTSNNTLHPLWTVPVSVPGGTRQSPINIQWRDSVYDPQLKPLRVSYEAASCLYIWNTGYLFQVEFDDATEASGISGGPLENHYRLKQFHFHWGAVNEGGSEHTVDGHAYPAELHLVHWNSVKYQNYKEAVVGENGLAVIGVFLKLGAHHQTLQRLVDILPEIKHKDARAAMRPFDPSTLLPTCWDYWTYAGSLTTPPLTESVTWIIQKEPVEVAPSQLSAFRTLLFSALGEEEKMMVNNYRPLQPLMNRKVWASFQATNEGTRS

hCA VII [5] = biological target: T5, hCA VII (Homo sapiens, UniProt P43166); assay: stopped-flow CO2 hydrase assay, hCA VII; format: biochemical
T5 construct: made in house
T5 sequence (P43166 whole entry): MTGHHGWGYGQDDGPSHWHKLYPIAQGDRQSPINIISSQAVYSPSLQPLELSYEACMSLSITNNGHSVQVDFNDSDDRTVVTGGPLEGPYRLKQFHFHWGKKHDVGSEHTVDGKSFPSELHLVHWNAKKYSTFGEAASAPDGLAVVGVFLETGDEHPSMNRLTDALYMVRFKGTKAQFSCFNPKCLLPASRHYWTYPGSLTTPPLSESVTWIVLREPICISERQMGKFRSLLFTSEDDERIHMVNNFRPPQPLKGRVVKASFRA

hCA IX [6] = biological target: T6, hCA IX (Homo sapiens, UniProt Q16790); assay: stopped-flow CO2 hydrase assay, hCA IX; format: biochemical; settings: for Selectivity Index hCA II/hCA IX: ratio of Ki values; for Ki: recombinant enzyme, errors ± 5–10%, 3 assays
T6 construct: made in house

hCA XII [7] = biological target: T7, hCA XII (Homo sapiens, UniProt O43570); assay: stopped-flow CO2 hydrase assay, hCA XII; format: biochemical; settings: for Selectivity Index hCA II/hCA XII: ratio of Ki values
T7 construct: made in house
T7 sequence (O43570 25-354): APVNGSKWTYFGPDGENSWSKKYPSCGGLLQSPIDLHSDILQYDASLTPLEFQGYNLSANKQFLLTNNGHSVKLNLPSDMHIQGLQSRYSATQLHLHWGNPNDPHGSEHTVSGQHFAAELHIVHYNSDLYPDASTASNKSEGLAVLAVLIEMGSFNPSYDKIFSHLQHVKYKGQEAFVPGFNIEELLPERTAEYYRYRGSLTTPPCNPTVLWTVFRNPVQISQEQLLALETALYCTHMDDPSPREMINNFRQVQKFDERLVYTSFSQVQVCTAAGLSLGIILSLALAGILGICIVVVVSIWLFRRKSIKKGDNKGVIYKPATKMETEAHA

hCA I [8] = biological target: T1, hCA I; parameters: method as in PMID 26121309; settings: values measured previously; cited from earlier work
hCA II [9] = biological target: T2, hCA II; parameters: method as in PMID 26121309; settings: values measured previously; cited from earlier work
hCA IV [10] = biological target: T3, hCA IV; parameters: method as in PMID 26121309; settings: values measured previously; cited from earlier work
hCA VA [11] = biological target: T4, hCA VA; parameters: method as in PMID 26121309; settings: values measured previously; cited from earlier work
hCA VII [12] = biological target: T5, hCA VII; parameters: method as in PMID 26121309; settings: values measured previously; cited from earlier work
hCA IX [13] = biological target: T6, hCA IX; parameters: method as in PMID 26121309; settings: values measured previously; cited from earlier work
hCA XII [14] = biological target: T7, hCA XII; parameters: method as in PMID 26121309; settings: values measured previously; cited from earlier work
[15] = test system: chronic myeloid leukemia cells; parameters: method as in PMID 26121309; settings: cited from earlier work
[16] = recombinant enzyme, errors ± 5–10%, 3 assays, read-out: Ki hCA II
[17] = recombinant enzyme, errors ± 5–10%, 3 assays, read-out: Ki hCA IV
[18] = recombinant enzyme, errors ± 5–10%, 3 assays, read-out: Ki hCA VA
[19] = recombinant enzyme, errors ± 5–10%, 3 assays, read-out: Ki hCA VII
[20] = recombinant enzyme, errors ± 5–10%, 3 assays, read-out: Ki hCA XII
[21] = recombinant enzyme, errors ± 5–10%, 3 assays, read-out: Ki hCA I

T1 sequence (P00915 whole entry): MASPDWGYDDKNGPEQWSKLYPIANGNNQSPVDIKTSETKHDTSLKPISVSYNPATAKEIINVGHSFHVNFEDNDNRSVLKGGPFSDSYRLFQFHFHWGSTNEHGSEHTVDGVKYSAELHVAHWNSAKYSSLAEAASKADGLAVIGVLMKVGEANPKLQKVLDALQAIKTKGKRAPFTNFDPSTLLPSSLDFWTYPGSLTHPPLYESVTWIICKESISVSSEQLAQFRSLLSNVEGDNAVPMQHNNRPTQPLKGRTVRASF

Ki (hCA I [1])	Ki (hCA II [2]; [16])	Ki (hCA IV [3]; [17])	Ki (hCA VA [4]; [18])	Ki (hCA VII [5]; [19])	Selectivity Index hCA II/hCA IX (hCA IX [6])	Ki (hCA IX [6])	Ki (hCA XII [7]; [20])	Ki (hCA I [1]; [21])	Selectivity Index hCA II/hCA XII (hCA XII [7])	Ki (hCA VA [4])	Compound	also measured
> 50 µM	> 50 µM	> 50 µM	92.5 nM	> 50 µM	>632.1	79.1 nM	648 nM				N#Cc1ccc(NCCc2ccccc2)c([N+](=O)[O-])c1 [Compound 19]	hCA VII inhibition (in words) (hCA VII [5]): inactive
	7.63 µM	> 50 µM	262 nM	> 50 µM	104.8	72.8 nM	629 nM	2.73 µM	12.1		O=C(Cc1ccccc1)Nc1ccc(C(=O)O)cc1 [Compound 18]	
6.02 µM	2.63 µM	> 50 µM		> 50 µM	15.3	172 nM	> 50000 nM			> 50000 nM	O=C(O)c1ccc(Sc2ccccc2C(=O)O)c([N+](=O)[O-])c1 [Compound 4]	
8.21 µM	8.05 µM	> 50 µM		> 50 µM	263.1	30.6 nM	> 50000 nM			> 50000 nM	CCOC(=O)C1CCN(c2ccc(C(=O)O)cc2[N+](=O)[O-])CC1 [Compound 6]	hCA XII inhibition (in words) (hCA XII [7]): not active
> 50 µM	> 50 µM	9.2 µM	110 nM	> 50 µM	>2024.3	24.7 nM	724 nM		>69.1		CC(C)(C)OC(=O)N1CCC(Nc2ccc(C(=O)O)cc2[N+](=O)[O-])CC1 [Compound 15]	
	0.655 µM	5.09 µM	826 nM	0.325 µM	11.88	55.1 nM	27.3 nM	0.7 µM	23.99		O=C(O)c1ccc(Sc2nnc(-c3cccc(Br)c3)o2)c([N+](=O)[O-])c1 [Compound 1]	Ki against hCA II, fold higher than that of AAZ (hCA II [2]; relative to AAZ): around 54 fold; Ki against hCA II, fold higher than that of GV2-20 (hCA II [2]; relative to GV2-20): around 10 fold; drop of inhibitory potency against hCA VII compared to GV2-20 (hCA VII [5]; relative to GV2-20): around 37 fold
	> 50 µM	> 50 µM	117 nM	> 50 µM	>471.7	106 nM	633 nM	> 50 µM	>79.0		O=C(O)c1ccc(NCc2cccnc2)c([N+](=O)[O-])c1 [Compound 13]	hCA VII inhibition (in words) (hCA VII [5]): inactive
> 50 µM	> 50 µM	> 50 µM	449 nM	> 50 µM	>2174.0	23 nM	482 nM		>103.7		O=C(CSc1nnc(-c2ccncc2)s1)Nc1cc(C(=O)O)cc([N+](=O)[O-])c1 [Compound 14]	
	7.3 µM	> 50 µM	1310 nM	0.84 µM	34.9	209 nM	> 50000 nM	> 50 µM			O=C(O)c1ccc(N2CCc3ccccc32)c([N+](=O)[O-])c1 [Compound 3]	
	> 50 µM	> 50 µM	142 nM	0.665 µM	>3125	16 nM	82.1 nM	6.65 µM	>609.01		O=C(O)c1ccc(Sc2ccccn2)c([N+](=O)[O-])c1 [Compound 10]	
> 50 µM	> 50 µM	6.03 µM	154 nM	1.73 µM	>1661.1	30.1 nM	352 nM		>142.0		CC1=NN(c2ccc(C)cc2)C(=O)/C1=C/Nc1ccc(C(=O)O)cc1[N+](=O)[O-] [Compound 16]	
> 50 µM	> 50 µM	> 50 µM	144 nM	> 50 µM		82 nM	91.9 nM				CC(=O)Nc1cccc(Nc2c([N+](=O)[O-])cc(C(=O)O)cc2[N+](=O)[O-])c1 [Compound 12]	
> 50 µM	7.31 µM	> 50 µM		> 50 µM	264.9	27.6 nM	> 50000 nM			1460 nM	CS(=O)(=O)c1ccc(C(=O)O)cc1[N+](=O)[O-] [Compound 7]	hCA XII inhibition (in words) (hCA XII [7]): not active
5.65 µM	7.24 µM	> 50 µM		> 50 µM	68.3	106 nM	> 50000 nM			1350 nM	CC1OC(Nc2cc(C(=O)O)cc([N+](=O)[O-])c2)C(O)C(O)C1O (stereo not drawn) [Compound 2]	
8.15 µM	> 50 µM	> 50 µM	1160 nM	> 50 µM	>326.8	153 nM	863 nM		>57.9		O=C(O)c1ccc(NCCc2ccc(Cl)cc2)c([N+](=O)[O-])c1 [Compound 5]	hCA VII inhibition (in words) (hCA VII [5]): inactive
> 50 µM	8.5 µM	8.27 µM		0.762 µM	51.5	165 nM	753 nM		11.3	> 50000 nM	Cc1cc(C(=O)Nc2cc(C(=O)O)cc([N+](=O)[O-])c2)no1 [Compound 9]	
> 50 µM	> 50 µM	> 50 µM	356 nM	> 50 µM	>857.6	58.3 nM	778 nM		>64.3		Cc1ccc(S(=O)(=O)c2ccc(C(=O)O)cc2[N+](=O)[O-])cc1 [Compound 11]	
	> 50 µM	3.56 µM	739 nM	> 50 µM	>2136.8	23.4 nM	441 nM	> 50 µM	>113.4		O=C(O)c1ccc(Sc2nnnn2-c2ccccc2)c([N+](=O)[O-])c1 [Compound 17]	

Compound	Ki (hCA I [1])	Ki (hCA II [2]; [16])	Ki (hCA IV [3]; [17])	Ki (hCA VA [4]; [18])	Ki (hCA VII [5]; [19])	Selectivity Index hCA II/hCA IX (hCA IX [6])	Ki (hCA IX [6])	Ki (hCA XII [7]; [20])	Ki (hCA I [1]; [21])	Selectivity Index hCA II/hCA XII (hCA XII [7])	Ki (hCA VA [4])	also measured
O=C(O)c1ccc(Sc2nnc(Sc3ccc(C(=O)O)cc3[N+](=O)[O-])s2)c([N+](=O)[O-])c1 [Compound 8]	6.45 µM						26.3 nM				> 50000 nM	Ki (hCA II [2]): 0.801 µM; Ki (hCA IV [3]): 8.8 µM; Ki (hCA VII [5]): > 50 µM; hCA VII inhibition (in words) (hCA VII [5]): inactive; Ki (hCA XII [7]): 912 nM
O=C(O)c1cc([N+](=O)[O-])c(NCCc2ccccc2)c([N+](=O)[O-])c1 [GV2-20]						1.59				7.01		Ki (hCA I [8]): 352 nM; Ki (hCA II [9]): 67.3 nM; Ki (hCA IV [10]): 7.66 µM; Ki (hCA VA [11]): 895 nM; Ki (hCA VII [12]): 8.7 nM; Ki (hCA IX [13]): 42.3 nM; Ki (hCA XII [14]): 9.6 nM; antiproliferative effects [15]: antiproliferative effects
